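Five concentrations, 48 hours, 96-well plates. Abbreviation: GI50, concentration required for 50% inhibition of growth. Definition used: TGI = concentration required for complete inhibition of growth.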

Among the test systems are BT-549 breast; DU-145 prostate; HT29 colon; MOLT-4 leukemia; NCI-H226 lung; OVCAR-8 ovarian; SF-268 CNS; SF-539 CNS; SW-620 colon; CAKI-1 renal.
Test in all cases: NCI-60 cell line screen, 48 h

For the molecule `CC1(C)N=C(N)N=C(N)N1c1ccc(OCC(=O)Nc2ccc(S(=O)(=O)F)cc2Cl)c(Cl)c1`, the GI50 was 58.4 µM in the assay with BT-549 breast; 5.69 µM in the assay on DU-145 prostate; 2.57 µM in the assay on HT29 colon; 6.74 µM with MOLT-4 leukemia; 57.8 µM in the assay with NCI-H226 lung; 7.79 µM in the assay on OVCAR-8 ovarian. Moreover, the GI50 is 3.79 µM with SF-268 CNS, 4.77 µM with SF-539 CNS and 1.08 µM in the assay on SW-620 colon. The TGI in the assay on BT-549 breast, with DU-145 prostate, in the assay with HT29 colon, with MOLT-4 leukemia, with NCI-H226 lung and in the assay with OVCAR-8 ovarian was greater than 100 µM throughout. The TGI in the assay on SF-268 CNS, in the assay on SF-539 CNS and in the assay with SW-620 colon was greater than 100 µM throughout.
With `CC(=O)OCc1nnn2c1C(OC(C)=O)CC2` (stereo not given), the TGI in the assay with CAKI-1 renal, in the assay on HT29 colon, with MOLT-4 leukemia, in the assay with NCI-H226 lung, with OVCAR-8 ovarian and in the assay with SF-539 CNS was greater than 100 µM in each case. The molecule also came in with a TGI in the assay on SW-620 colon greater than 100 µM.
As to `CNC(=O)/C=C/C1=CN2C(=O)c3ccc(C)c(O)c3NC(OC)C2C1` (stereo not given), the TGI with CAKI-1 renal was 2.63 µM; in the assay on DU-145 prostate it was less than 0.01 µM; in the assay on HT29 colon, 3.29 µM; with MOLT-4 leukemia, greater than 8.39 µM; in the assay with NCI-H226 lung, 0.0731 µM; in the assay on OVCAR-8 ovarian, 0.192 µM. Further, the TGI in the assay with SF-268 CNS is 0.08 µM; with SF-539 CNS it was less than 0.0176 µM; with SW-620 colon, 24.4 µM.
As to `CC1(C)CC[C@]23CC[C@]4(C)[C@H](CC[C@@H]5[C@@]6(C)CCCNC(C)(C)[C@@H]6CC[C@]54C)[C@H]2[C@H]1OC3`, the GI50 in the assay with CAKI-1 renal was 1.62 µM; in the assay with DU-145 prostate it was 1.74 µM; in the assay with HT29 colon it was 1.78 µM; with MOLT-4 leukemia, 2.1 µM; in the assay with NCI-H226 lung, 1.7 µM; in the assay on SF-268 CNS, 2.04 µM. Besides, the GI50 in the assay on SF-539 CNS is 1.64 µM; in the assay on SW-620 colon, 1.75 µM. Further, the TGI with CAKI-1 renal was 2.97 µM; in the assay on DU-145 prostate it was 3.23 µM; in the assay with HT29 colon, 3.63 µM; with MOLT-4 leukemia, 5.04 µM; with NCI-H226 lung it was 3.47 µM; in the assay on SF-268 CNS it was 5.31 µM. For the same molecule, the figures for the TGI with SF-539 CNS and in the assay with SW-620 colon were 3.07 µM and 3.49 µM, respectively.
As for `O=C(O)C1=Cc2cccc3cccc(c23)C1=O`, the TGI in the assay on CAKI-1 renal, in the assay on HT29 colon, in the assay on MOLT-4 leukemia, in the assay on NCI-H226 lung, in the assay with OVCAR-8 ovarian and with SF-268 CNS was greater than 100 µM throughout. For the same molecule, the TGI in the assay on SW-620 colon is greater than 100 µM.
In the case of `COC(=O)C1c2cc3c(c(O)c2CCC1(C)O)C(=O)c1c(O)cc2c(c1C3=O)OC1OC2(C)C(O)C(N(C)C)C1O` (stereo not given), the TGI was found to be 0.561 µM with DU-145 prostate; 1.29 µM in the assay with HT29 colon; 0.357 µM with MOLT-4 leukemia; 0.45 µM with NCI-H226 lung; 0.591 µM in the assay with OVCAR-8 ovarian; 11.1 µM in the assay on SF-268 CNS. For the same molecule, the TGI in the assay on SF-539 CNS was 3.88 µM; in the assay on SW-620 colon it was 1.08 µM.
As to `CCOC(=O)C#Cc1cccc(C#CC(=O)OCC)c1`, the TGI worked out at 5.1 µM with BT-549 breast; 10.2 µM with CAKI-1 renal; 17.9 µM in the assay on DU-145 prostate; 9.07 µM in the assay with HT29 colon; 22.1 µM in the assay on NCI-H226 lung; 26 µM with OVCAR-8 ovarian. Moreover, the TGI in the assay on SF-268 CNS turned out to be 16.7 µM; in the assay with SF-539 CNS, 9.65 µM; in the assay on SW-620 colon, 14.6 µM.
Regarding `Clc1nc(Cl)c2ncn(-c3ccccc3)c2n1`, the GI50 is 15.9 µM in the assay with BT-549 breast; 1.44 µM in the assay with DU-145 prostate; 3.87 µM in the assay on HT29 colon; 7.95 µM in the assay with MOLT-4 leukemia; 12.1 µM in the assay with NCI-H226 lung; 4.4 µM in the assay on OVCAR-8 ovarian. For the same molecule, the values for the GI50 in the assay with SF-268 CNS, with SF-539 CNS and in the assay on SW-620 colon were 3.26 µM, 10.6 µM and 2.08 µM, respectively. The TGI in the assay with BT-549 breast amounted to 29.5 µM; in the assay with DU-145 prostate, 2.96 µM; in the assay with HT29 colon, 13.5 µM; in the assay on MOLT-4 leukemia, 52.3 µM; with NCI-H226 lung, 28.5 µM; in the assay with OVCAR-8 ovarian it was 19 µM. For the same molecule, the TGI with SF-268 CNS was determined as 15.4 µM; with SF-539 CNS it was 27.3 µM; in the assay with SW-620 colon, 5.74 µM.
As to `CCOC(=O)C1=C(C)NC2SC(=O)/C(=C\c3cccc(Cl)c3)N2C1c1ccccc1` (stereo not given), the GI50 with BT-549 breast, in the assay on CAKI-1 renal, in the assay on DU-145 prostate, in the assay on HT29 colon, with NCI-H226 lung and in the assay with OVCAR-8 ovarian was greater than 100 µM in each case. The GI50 in the assay with SF-268 CNS, in the assay on SF-539 CNS and in the assay with SW-620 colon was greater than 100 µM in each case. Further, the TGI with BT-549 breast, in the assay with CAKI-1 renal, in the assay on DU-145 prostate, with HT29 colon, in the assay on NCI-H226 lung and in the assay with OVCAR-8 ovarian was greater than 100 µM throughout. Also, the TGI with SF-268 CNS, in the assay with SF-539 CNS and in the assay on SW-620 colon was greater than 100 µM in each case.
On to `CCCCCCCCCCCCCCCC(=O)NS(=O)(=O)OC[C@H]1O[C@@H](n2cnc3c(N)ncnc32)[C@H](O)[C@@H]1O`, for which the GI50 in the assay with DU-145 prostate was less than 0.0462 µM; in the assay with HT29 colon, 0.0402 µM; in the assay on MOLT-4 leukemia, 0.962 µM; in the assay with NCI-H226 lung it was less than 0.0245 µM; in the assay with OVCAR-8 ovarian, 0.3 µM; in the assay on SF-268 CNS, less than 0.0481 µM. The GI50 is 0.118 µM with SF-539 CNS and 0.0412 µM in the assay on SW-620 colon. For the same molecule, the TGI was 3.98 µM in the assay on DU-145 prostate; 0.342 µM with HT29 colon; 8.92 µM with MOLT-4 leukemia; less than 0.0497 µM in the assay with NCI-H226 lung; 1.28 µM in the assay with OVCAR-8 ovarian; 1.28 µM with SF-268 CNS. The TGI amounted to 0.359 µM with SF-539 CNS and 10.1 µM in the assay with SW-620 colon.
In the case of `CCOC(=O)CCc1c(C)c2c(OC)cc(OC)cc2oc1=O`, the TGI with CAKI-1 renal, in the assay with HT29 colon, in the assay on NCI-H226 lung, in the assay with OVCAR-8 ovarian, with SF-268 CNS and in the assay with SF-539 CNS was greater than 100 µM throughout. The same molecule returned a TGI with SW-620 colon greater than 100 µM.
Regarding `Cc1ccc2ncnc(N(C)C3CCCCC3)c2c1`, the GI50 was 13.9 µM in the assay with CAKI-1 renal; 33.9 µM in the assay on DU-145 prostate; 14.4 µM in the assay on MOLT-4 leukemia; 18.7 µM with NCI-H226 lung; 14.6 µM in the assay with OVCAR-8 ovarian; 23.7 µM in the assay with SF-268 CNS. For the same molecule, the TGI in the assay with CAKI-1 renal is 39 µM; in the assay on DU-145 prostate it was greater than 100 µM; with MOLT-4 leukemia it was 63.6 µM; in the assay on NCI-H226 lung, 58.4 µM; in the assay on OVCAR-8 ovarian, 63.8 µM; in the assay on SF-268 CNS, 89.8 µM.

Values taken from PubChem BioAssay (NCI).
